“Also recorded” adds a separate entry of the source. Where two headings read alike, the source gives them in different places.
How the values were obtained:
[1] = target: T1, equine serum BChE [EqBChE] (Equus caballus, UniProt P81908); set-up: method as in PMID 30727776; conditions: Figure 1; ref [22]; read-out: EqBChE (IC50 of prototype); cited from earlier work
T1 construct: equine serum BChE [EqBChE]; from tissue; host or cells: equine serum

[2] = target: electric eel AChE [EeAChE] (Electrophorus electricus, UniProt O42275); test: biochemical; format: biochemical; conditions: for IC50: Electric eel AChE, Ellman method, read-out: IC50(nM) ± SD AChE (EeAChE); for SI: Selectivity Index = EqBChE IC50/EeAChE IC50
Procedure: (§1) The anticholinesterase activity was determined using Ellman’s method, adapted as follows. […] Subsequently, 60 μL of 5,5′-dithiobis(2-nitrobenzoic acid) (DTNB, 1.1 mM) and 30 μL of enzyme solution (electric eel AChE [EeAChE], human AChE [hAChE], or equine serum BChE [EqBChE], 0.20 U/mL) containing 1 mg/mL bovine serum albumin (BSA) were added. […] Enzyme activity was calculated as the percentage relative to untreated controls, subtracting the blank reference. IC50 values were derived via non-linear regression analysis of dose–response curves (Figure S4) using GraphPad Prism v7.0.

[3] = target: T1, equine serum BChE [EqBChE]; test: biochemical; conditions: Ellman method, read-out: IC50(nM) ± SD BChE (EqBChE)
Procedure: as §1

[4] = target: T2, hH3R (Homo sapiens, UniProt Q9Y5N1); test: H3R radioligand displacement assay ([3H]-N-α-methylhistamine); format: binding; conditions: 95% confidence interval in brackets; HEK-293 membranes
T2 construct: expressed in transfected cells; host or cells: HEK-293
Procedure: HEK-293 cells (human embryonic kidney cells) stably expressing hH3R were washed and harvested in PBS buffer (phosphate-buffered saline). […] The cell membrane homogenate was centrifuged (20,000× g, 20 min, 4 °C), and the resulting pellet was resuspended in binding buffer and stored at −80 °C until use.
Prior to experiments, the cell membranes were thawed, homogenized by sonication at 4 °C, and kept in ice-cold binding buffer. Crude membrane extracts (20 μg/well in a final volume of 0.2 mL binding buffer) were incubated with [^3H]-N-α-methylhistamine (2 nM; 78.3 Ci/mmol) and varying concentrations of test compounds. Assays were performed in duplicate, with compound concentrations ranging from 0.01 nM to 100 μM. Incubations proceeded for 90 min at room temperature under continuous agitation.
Bound radioligand was separated from free radioligand by filtration through GF/B filters pretreated with 0.3% (w/v) polyethyleneimine, using a cell harvester. Radioactivity was quantified by liquid scintillation counting. Data were analyzed using GraphPad Prism v8 (San Diego, CA, USA) software, employing non-linear regression analysis.

[5] = target: T3, hMAO-A (Homo sapiens, UniProt P21397); test: MAO-A inhibition, fluorometric Amplex Red assay; format: biochemical; conditions: test concentration of 1 µM; read-out: Percentage of MAO-A inhibition ± SEM
T3 construct: purchased Sigma-Aldrich, Gillingham, UK
T3 sequence (P21397 1-527): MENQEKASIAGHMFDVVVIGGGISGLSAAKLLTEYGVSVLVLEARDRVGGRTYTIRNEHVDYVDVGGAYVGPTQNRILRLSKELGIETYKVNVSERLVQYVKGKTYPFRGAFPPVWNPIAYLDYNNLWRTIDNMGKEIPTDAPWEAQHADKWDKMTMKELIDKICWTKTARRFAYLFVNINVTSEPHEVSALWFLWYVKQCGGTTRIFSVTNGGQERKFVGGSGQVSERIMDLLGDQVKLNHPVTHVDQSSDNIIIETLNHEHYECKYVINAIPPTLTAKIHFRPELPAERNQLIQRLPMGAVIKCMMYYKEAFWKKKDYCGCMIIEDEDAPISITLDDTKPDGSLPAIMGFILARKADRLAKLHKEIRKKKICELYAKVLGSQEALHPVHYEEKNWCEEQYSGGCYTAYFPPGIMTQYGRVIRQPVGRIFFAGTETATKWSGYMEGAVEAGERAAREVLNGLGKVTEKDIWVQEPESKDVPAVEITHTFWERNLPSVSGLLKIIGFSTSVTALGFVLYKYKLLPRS
Procedure: The activity of human recombinant membrane-bound monoamine oxidase isoforms A and B (MAO-A/B) (Sigma-Aldrich, Gillingham, UK) in 50 mM potassium phosphate buffer (pH 7.5) was determined by measuring hydrogen peroxide production coupled to the fluorescent dye Amplex Red (Sigma-Aldrich, UK) at a final concentration of 50 μM, in the presence of horseradish peroxidase (HRP, 2.5 U/mL). This coupling reaction generates the fluorescent product resorufin, which was quantified at 30 °C using a fluorescence plate reader. […].
(§2) Reactions were initiated by adding the substrate and dye after a 30 min preincubation of the inhibitor with the enzyme. Data were analyzed using a three-parameter equation in GraphPad Prism 7.0 (San Diego, USA). Each reported value represents the mean of at least two independent determinations.

[6] = target: T4, hMAO-B (Homo sapiens, UniProt P27338); test: biochemical; format: biochemical; conditions: test concentration of 1 µM; read-out: Percentage of MAO-B inhibition ± SEM
T4 construct: purchased Sigma-Aldrich, Gillingham, UK
T4 sequence (P27338 1-520): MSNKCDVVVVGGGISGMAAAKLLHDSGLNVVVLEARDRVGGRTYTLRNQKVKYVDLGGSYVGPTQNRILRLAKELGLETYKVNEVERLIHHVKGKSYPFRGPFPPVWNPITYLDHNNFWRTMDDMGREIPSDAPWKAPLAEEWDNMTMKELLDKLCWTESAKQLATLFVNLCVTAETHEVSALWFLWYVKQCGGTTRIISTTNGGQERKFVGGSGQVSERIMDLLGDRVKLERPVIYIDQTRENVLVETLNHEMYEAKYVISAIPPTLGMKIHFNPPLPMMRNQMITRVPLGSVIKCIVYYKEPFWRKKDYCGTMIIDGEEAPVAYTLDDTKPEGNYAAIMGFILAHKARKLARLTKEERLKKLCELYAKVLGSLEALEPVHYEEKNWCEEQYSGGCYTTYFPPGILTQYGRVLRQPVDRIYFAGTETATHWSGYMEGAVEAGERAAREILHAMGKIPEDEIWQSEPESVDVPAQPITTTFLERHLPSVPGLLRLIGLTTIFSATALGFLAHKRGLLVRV
Procedure: The activity of human recombinant membrane-bound monoamine oxidase isoforms A and B (MAO-A/B) (Sigma-Aldrich, Gillingham, UK) in 50 mM potassium phosphate buffer (pH 7.5) was determined by measuring hydrogen peroxide production coupled to the fluorescent dye Amplex Red (Sigma-Aldrich, UK) at a final concentration of 50 μM, in the presence of horseradish peroxidase (HRP, 2.5 U/mL). This coupling reaction generates the fluorescent product resorufin, which was quantified at 30 °C using a fluorescence plate reader.
as §2

[7] = target: human AChE [hAChE] (Homo sapiens, UniProt P22303); test: biochemical
Procedure: as §1

[8] = target: electric eel acetylcholinesterase (EeAChE) (Electrophorus electricus, UniProt O42275); test: Enzymatic kinetic study, EeAChE; format: biochemical; conditions: AChE
Procedure: (§3) The enzymatic kinetics of cholinesterase inhibition were determined according to an adapted Ellman’s method. All of the solutions were prepared at 20 °C in 0.02 M Tris-HCl buffer (pH 7.5; ionic strength ~0.02 M), stock solutions of test compounds were prepared in DMSO:EtOH (7:3) mixture (20 mM), and the experiment was conducted in triplicate. To a flat-bottom 96-well transparent plate (path length of 0.6 cm) were added 150 μL of treatment solutions with inhibitors 1a, 1h, and 1j at two different concentrations (Table S1) distributed in eight sets of triplicate each. Eight sets of untreated triplicates were used as a negative control. Following, there were added 60 μL of 5,5′-Dithiobis(2-nitrobenzoic acid) (DTNB, Ellman’s reagent) at 1.1 mM and 30 μL of electric eel acetylcholinesterase (EeAChE) or equine serum butyrylcholinesterase (EqBuChE) at 0.20 U/mL in the presence of 1 mg/mL bovine serum albumin (BSA). […] Ki, Ki’ (competitive and noncompetitive inhibition constants, respectively), Km (Michaelis-Menten constant), and Vmax values were calculated with Graphpad Prism v7.0 using the non-linear regression models for enzyme kinetics inhibition and enzyme kinetics–substrate vs. velocity.

[9] = target: T5, equine serum butyrylcholinesterase (EqBuChE) (Equus caballus, UniProt P81908); test: Enzymatic kinetic study, EqBChE; format: biochemical; conditions: BChE
T5 construct: equine serum BChE [EqBChE]; from tissue; host or cells: equine serum
Procedure: as §3

[10] = Cytotoxicity (neurotoxicity) MTT assay in SH-SY5Y; format: cell-based; conditions: human, SH-SY5Y neuroblastoma cells
Procedure: (§4) The immortalized human neuroblastoma cell line (SH-SY5Y–ATCC: CRL-2226; BCRJ:0223) was used to evaluate cytotoxicity. The cell line was cultured in Dulbecco’s Modified Eagle’s Medium and F12 in a 1:1 ratio (DMEM:F12; Sigma-Aldrich code 0697, Brazil) supplemented with 10% fetal bovine serum (FBS; Sigma-Aldrich code F2442, Brazil) and 1% streptomycin/penicillin (10,000 U/mL and 10,000 μg/mL, respectively; Nova Biotecnologia code BR30110-01, Cotia, SP, Brazil) and incubated at 37 °C with 5% CO2. The culture medium was replaced every 48 h, until the cells reached semi-confluence (≥70%). Cell passage was carried out with the aid of trypsin-EDTA/0.25% solution (Nova Biotecnologia, Brazil) and divided between 5 or 8 mL culture volumes depending on the respective bottles (25 or 75 cm^2) used.
(§5) The in vitro cytotoxicity assay evaluated cell viability using the [3-(4,5-dimethylthiazol-2yl)-2,5-diphenyl tetrazolium] bromide (MTT) reduction assay. Cells were seeded at an initial density of 5.0 × 10^4 cells/well in 96-well plates in a volume of 200 µL. […] In the next step, the culture medium was replaced by the sample solution previously described (Section 3.4.2). After 24 h exposure, the medium was replaced with 100 μL of MTT in phosphate-buffer saline (PBS), pH 7.4, at a concentration of 0.5 mg.mL^−1/well and the plates were incubated for an additional 3 h. Then, the MTT solution was removed, and 100 μL of DMSO was added to solubilize the formazan crystals. The cell viability was measured by absorbance at 562 nm using a Microplate Absorbance Reader (Kasuaki, Brazil). All concentrations tested were evaluated in nine replicates (n = 9). The variation in results was observed using ANOVA followed by Tukey’s test for multiple comparisons through GraphPad Prism v5^TM with a significance level of p < 0.05.

[11] = tested on: SH-SY5Y neuroblastoma cells; test: Cytotoxicity (neurotoxicity) MTT assay in SH-SY5Y; format: cell-based; conditions: up to 50 µM
Procedure: as §4, §5

[12] = tested on: H2O2-damaged SH-SY5Y cells; test: In vitro neuroprotection against H2O2 in SH-SY5Y (MTT); conditions: Homo sapiens, SH-SY5Y, read-out: Cell viability (% of control)
Procedure: For the neuroprotection assay, the cells previously cultured (Section 3.4.1) were seeded in 96-well plates at a density of 5 × 10^4 cells/well in a volume of 200 µL. The plates were incubated at 37 °C containing 5% CO2 for 24 h. After 24 h, the medium was replaced with the test solutions. […] Finally, the test solutions were removed, the cells were washed with PBS pH 7.4, and the H2O2 solution was added and maintained in contact with the cells for 24 h. After 24 h exposure, the neuroprotective capacity was assessed through cell viability using the MTT assay protocol previously described in Section 3.4.3 [52, 53].

[13] = competitive inhibition constant (Table S2), read-out: Ki (nM) ± SD
[14] = global non-linear regression, mixed inhibition (Table S3)

T1 sequence (P81908 whole entry): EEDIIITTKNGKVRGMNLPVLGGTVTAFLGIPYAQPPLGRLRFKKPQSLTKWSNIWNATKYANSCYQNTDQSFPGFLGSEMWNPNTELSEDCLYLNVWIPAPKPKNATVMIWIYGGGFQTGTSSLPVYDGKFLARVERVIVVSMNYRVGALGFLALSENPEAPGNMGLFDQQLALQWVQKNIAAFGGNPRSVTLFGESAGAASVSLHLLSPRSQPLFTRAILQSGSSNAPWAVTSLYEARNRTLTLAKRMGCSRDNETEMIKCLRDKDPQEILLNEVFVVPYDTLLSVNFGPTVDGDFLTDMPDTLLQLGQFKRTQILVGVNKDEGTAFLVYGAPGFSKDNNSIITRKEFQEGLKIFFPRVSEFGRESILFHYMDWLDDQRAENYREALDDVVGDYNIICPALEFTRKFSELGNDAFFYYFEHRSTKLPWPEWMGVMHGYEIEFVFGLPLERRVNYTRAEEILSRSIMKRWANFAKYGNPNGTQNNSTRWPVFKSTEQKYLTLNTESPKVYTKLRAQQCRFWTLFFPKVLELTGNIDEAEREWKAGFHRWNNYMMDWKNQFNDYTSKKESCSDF
T5 sequence (P81908 whole entry): as above
Chain of electric eel AChE [EeAChE] (O42275 24-633): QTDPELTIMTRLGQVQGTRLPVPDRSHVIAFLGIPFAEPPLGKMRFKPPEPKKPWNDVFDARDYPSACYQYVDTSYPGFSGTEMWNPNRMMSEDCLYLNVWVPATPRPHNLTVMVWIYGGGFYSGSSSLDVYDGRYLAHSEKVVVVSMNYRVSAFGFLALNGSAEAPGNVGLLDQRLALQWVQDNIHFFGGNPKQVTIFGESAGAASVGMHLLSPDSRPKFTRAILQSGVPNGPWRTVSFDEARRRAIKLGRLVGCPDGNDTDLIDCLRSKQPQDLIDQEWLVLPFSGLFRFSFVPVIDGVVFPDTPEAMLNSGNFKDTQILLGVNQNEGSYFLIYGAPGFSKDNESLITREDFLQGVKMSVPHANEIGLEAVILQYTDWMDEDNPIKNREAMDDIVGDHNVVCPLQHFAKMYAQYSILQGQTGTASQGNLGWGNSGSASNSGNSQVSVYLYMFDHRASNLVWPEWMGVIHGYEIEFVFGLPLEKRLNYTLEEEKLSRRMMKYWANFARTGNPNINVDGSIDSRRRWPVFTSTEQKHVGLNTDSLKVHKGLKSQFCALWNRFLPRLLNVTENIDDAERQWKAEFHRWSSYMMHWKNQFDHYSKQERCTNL
Chain of electric eel acetylcholinesterase (EeAChE) (O42275 24-633): as above
Chain of human AChE [hAChE] (P22303 32-614): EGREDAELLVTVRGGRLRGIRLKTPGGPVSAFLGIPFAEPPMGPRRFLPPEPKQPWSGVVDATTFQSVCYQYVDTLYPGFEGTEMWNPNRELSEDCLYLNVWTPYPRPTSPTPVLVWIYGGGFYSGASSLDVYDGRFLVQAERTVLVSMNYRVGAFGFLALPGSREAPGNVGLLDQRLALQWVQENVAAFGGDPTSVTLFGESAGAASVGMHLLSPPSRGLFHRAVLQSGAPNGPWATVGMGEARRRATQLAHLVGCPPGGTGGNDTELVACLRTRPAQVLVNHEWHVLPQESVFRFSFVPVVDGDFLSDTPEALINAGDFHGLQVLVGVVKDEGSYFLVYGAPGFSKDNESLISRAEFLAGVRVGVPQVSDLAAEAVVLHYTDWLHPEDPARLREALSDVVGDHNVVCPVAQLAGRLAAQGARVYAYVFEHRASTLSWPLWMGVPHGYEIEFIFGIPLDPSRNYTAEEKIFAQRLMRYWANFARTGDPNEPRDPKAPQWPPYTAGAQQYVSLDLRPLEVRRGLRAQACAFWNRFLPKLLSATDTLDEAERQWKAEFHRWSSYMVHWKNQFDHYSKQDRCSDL
T2 sequence (Q9Y5N1 whole entry): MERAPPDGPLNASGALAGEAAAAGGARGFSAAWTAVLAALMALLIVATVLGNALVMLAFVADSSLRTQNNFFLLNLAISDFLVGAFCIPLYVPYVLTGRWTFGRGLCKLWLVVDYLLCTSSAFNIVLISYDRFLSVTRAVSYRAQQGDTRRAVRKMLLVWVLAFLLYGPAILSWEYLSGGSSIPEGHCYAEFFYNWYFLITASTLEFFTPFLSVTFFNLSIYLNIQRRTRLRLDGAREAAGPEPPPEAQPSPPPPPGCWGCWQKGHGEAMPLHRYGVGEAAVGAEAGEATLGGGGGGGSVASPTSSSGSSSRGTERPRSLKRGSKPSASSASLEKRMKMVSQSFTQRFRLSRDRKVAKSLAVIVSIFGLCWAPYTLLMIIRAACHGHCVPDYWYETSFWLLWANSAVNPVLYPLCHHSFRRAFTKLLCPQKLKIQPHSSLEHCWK

CN(C)c1ccc(-c2cc3ccc(OCCN4CCCCC4)cc3oc2=O)cc1 [Compound 2]
IC50 [1]: 6.37 µM

O=c1oc2cc(OCCCN3CCCCC3)ccc2cc1-c1cn(-c2ccccc2)nn1 [Compound 1b, 3-(1-Phenyl-1H-1,2,3-triazol-4-yl)-7-(3-(piperidin-1-yl)propoxy)-2H-chromen-2-one]
IC50 [2]: 1330 ± 45 nM | SI [2]: 3 | IC50 [3]: 3970 ± 94 nM | Ki [4]: 0.032 µM | inhibition at 1 µM [5]: 6.4 ± 0.5% | inhibition at 1 µM [6]: 11.4 ± 1.9%

COc1cccc(Cn2cc(-c3cc4ccc(OCCN5CCCCC5)cc4oc3=O)nn2)c1 [Compound 1j, 3-(1-(3-Methoxybenzyl)-1H-1,2,3-triazol-4-yl)-7-(2-(piperidin-1-yl)ethoxy)-2H-chromen-2-one]
IC50 [2]: 4.16 ± 0.11 nM | SI [2]: 686 | IC50 [3]: 2880 ± 120 nM | IC50 ([7]; Human AChE, Ellman method, read-out: IC50(nM) ± SD AChE (hAChE) (converted)): 12.5 nM | SI ([7]; SI = EqBChE IC50/hAChE): 222 | Ki [8, 13]: 0.508 ± 0.0001 nM | Ki ([8]; corrected for tight-binding using the Morrison equation (Table S3), read-out: Ki ± SE (95% CI)): 0.637 nM | α ± SE (95% CI) [8, 14]: 4.248 ± 1.415 | Vmax ± SD ([8]; inhibitor 0.003 μM): 5.21 ± 0.0656 1 × 10^3 nM/min | Vmax ± SD ([8]; inhibitor 0.005 μM): 3.90 ± 0.1517 1 × 10^3 nM/min | Ki [9, 13]: 615 ± 0.58 nM | Ki ([9]; free enzyme (Table S3), read-out: Ki ± SE (95% CI)): 944 ± 200 nM | α ± SE (95% CI) [9, 14]: 3.349 ± 1.984 | Vmax ± SD ([9]; inhibitor 1.9 μM): 5.97 ± 0.1562 1 × 10^3 nM/min | Vmax ± SD ([9]; inhibitor 3.9 μM): 4.12 ± 0.2257 1 × 10^3 nM/min | viability at 24 h, 12.5 µM ([10]; 12.5 μM, 24 h, MTT, read-out: Cell viability (% of control)): 71% | viability at 24 h, 25 µM ([10]; 25.0 μM, 24 h, MTT, read-out: Cell viability (% of control)): 70% | viability at 24 h, 50 µM ([10]; 50.0 μM, 24 h, MTT, read-out: Cell viability (% of control)): 63% | viability at 24 h ([10]; up to 25 μM, read-out: cell viability): ≥ 70% | neurotoxicity [11]: non-neurotoxic; also recorded: neurotoxicity in high concentrations | viability at 12.5 µM [12]: 68%
